Test results as given in patent US8124621B2, “Substituted 1-amino-4-phenyl-dihydroisoquinolines, methods for the production thereof, use thereof as a medicament, and medicaments containing them” (Sanofi-Aventis, priority 2006, dated 2012).
Counter-ions that a name gives are not always drawn.

Key:
NHE3 = target: T1, NHE3 (Homo sapiens, UniProt P48764); experiment: Determination of the NHE-inhibitory effect (recovery of intracellular pH after acidification, BCECF fluorescence); assay type: cell-based; details: pH recovery recorded for three minutes with NHE3; BCECF-loaded cells
T1 sequence (P48764 26-834): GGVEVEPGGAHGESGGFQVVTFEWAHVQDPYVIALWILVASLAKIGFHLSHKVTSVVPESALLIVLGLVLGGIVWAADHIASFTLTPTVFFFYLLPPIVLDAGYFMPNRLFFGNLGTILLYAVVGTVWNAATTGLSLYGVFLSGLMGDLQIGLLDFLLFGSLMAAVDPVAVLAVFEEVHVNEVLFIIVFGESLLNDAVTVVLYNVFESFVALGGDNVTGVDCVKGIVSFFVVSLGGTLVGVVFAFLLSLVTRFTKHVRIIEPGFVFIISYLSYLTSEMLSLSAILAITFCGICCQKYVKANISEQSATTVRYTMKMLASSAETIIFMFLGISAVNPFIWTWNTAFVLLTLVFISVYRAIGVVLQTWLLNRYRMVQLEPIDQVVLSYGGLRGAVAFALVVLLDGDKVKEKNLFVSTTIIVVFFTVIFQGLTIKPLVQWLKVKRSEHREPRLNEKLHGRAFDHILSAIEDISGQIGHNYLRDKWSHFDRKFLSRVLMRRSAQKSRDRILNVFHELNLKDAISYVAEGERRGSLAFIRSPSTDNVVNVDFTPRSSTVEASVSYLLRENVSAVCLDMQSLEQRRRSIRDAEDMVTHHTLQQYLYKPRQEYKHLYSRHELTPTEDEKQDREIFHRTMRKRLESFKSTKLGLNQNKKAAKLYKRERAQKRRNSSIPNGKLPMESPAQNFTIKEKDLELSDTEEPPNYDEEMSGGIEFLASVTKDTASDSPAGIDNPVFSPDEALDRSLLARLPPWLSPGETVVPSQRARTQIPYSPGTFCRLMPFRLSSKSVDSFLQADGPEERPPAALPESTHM
Method: Description of Assay: Determination of the NHE-Inhibitory Effect
In this assay, the recovery of the intracellular pH (pHj) after an acidification which occurs even under bicarbonate-free conditions with functional NHE was determined. To this end, the pHj was determined using the pH-sensitive fluorescent dye BCECF (Calbiochem, the precursor BCECF-AM was employed). The cells were initially loaded with BCECF. The BCECF fluorescence was determined in a ratio fluorescence spectrometer (Photon Technology International, South Brunswick, N.J., USA) with excitation wavelengths of 505 and 440 nm and an emission wavelength of 535 nm and converted into the pHj using calibration plots. The cells had been incubated in NH4Cl buffer (pH 7.4) for the BCECF loading (NH4Cl buffer: 115 mM NaCl, 20 mM NH4Cl, 5 mM KCl, 1 mM CaCl2, 1 mM MgSO4, 20 mM Hepes, 5 mM glucose, 1 mg/ml BSA; a pH of 7.4 was adjusted with 1 M NaOH). The intracellular acidification was induced by adding 975 μl of an NH4Cl-free buffer (see below) to 25 μl aliquots of the cells incubated in NH4Cl buffer. The subsequent rate of pH recovery was recorded for two minutes with NHE1, five minutes with NHE2 and three minutes with NHE3. To calculate the inhibitory power of the tested substances, the cells were initially investigated in buffers with which there was complete or absolutely no pH recovery. For complete pH recovery (100%), the cells were incubated in Na^+-containing buffer (133.8 mM NaCl, 4.7 mM KCl, 1.25 mM CaCl2, 1.25 mM MgCl2, 0.97 mM Na2HPO4, 0.23 mM NaH2PO4, 5 mM Hepes, 5 mM glucose, a pH of 7.0 was adjusted with 1 M NaOH). To determine the 0% value, the cells were incubated in an Na^+-free buffer (133.8 mM choline chloride, 4.7 mM KCl, 1.25 mM CaCl2, 1.25 mM MgCl2, 0.97 mM K2HPO4, 0.23 mM KH2PO4, 5 mM Hepes, 5 mM glucose, a pH of 7.0 was adjusted with 1 M NaOH). The substances to be tested were made up in the Na^+-containing buffer. The recovery of the intracellular pH at each tested concentration of a substance was expressed as a percentage of the maximum recovery. The IC50 of the respective substance for the individual NHE subtypes was calculated from the percentages of pH recovery using the Sigma Plot program.

Row | SMILES | melting point [°C] | IC50 (NHE3) [µM]
1 | NC1=NCC(c2ccc(N)cc2)c2ccccc21 (centres unmarked) [Example 1B, 1-amino-4-(4-aminophenyl)-3,4-dihydroisoquinoline Hydrochloride] |  | 8.24
2 | NC1=NCC(c2ccccc2N)c2cc(Cl)ccc21 (centres unmarked) [Example 2, 1-Amino-4-(2-aminophenyl)-6-chloro-3,4-dihydroisoquinoline Hydrochloride] |  | 1.63

Now from value to compound:

Row | melting point [°C] | IC50 (NHE3) [µM] | SMILES
3 | 278 to 284 |  | NC1=NCC(c2ccc(N)cc2)c2cc(Cl)ccc21 (centres unmarked) (as salt: hydrochloride) [Example 1A, 1-Amino-4-(4-aminophenyl)-6-chloro-3,4-dihydroisoquinoline Hydrochloride]
4 |  | 1.95 | NC1=NCC(c2ccc(N)cc2)c2cc(Cl)ccc21 (centres unmarked) [Example 1A, 1-Amino-4-(4-aminophenyl)-6-chloro-3,4-dihydroisoquinoline Hydrochloride]
5 |  | 4.93 | CNC1=NCC(c2ccc(N)cc2)c2cc(Cl)ccc21 (centres unmarked) [Example 3, 4-(4-Aminophenyl)-6-chloro-1-methylamino-3,4-dihydroisoquinoline Hydrochloride]
